Laboratory results reported in patent US20160101194A1, “SMART® Medication Adherence Formulation, Method, Device and System for Topical, Vaginal or Rectal Routes of Administration” (University of Florida Research Foundation, Incorporated, priority 2013, published 2016).
Values belong to the compound of their own block, whether it stands above or below them.

Tests used:
[1] = after oral dosing
Description: Data shown are mean±SD. *, P<0.05 for a given time point compared to time point 0 min. The arrow denotes time of capsule ingestion. Concentrations less than the level of 1.0 parts-per-billion (ppb) are noted as “<LOD”.

[2] = 40 mg rectal in 3 mL HEC gel
Description: The entire contents of the syringe were applied rectally as a bolus. Breath acetone and 2-butanone levels were monitored throughout the experiment by delivering single full breath samples directly into the modified ESI source. Two baseline breath samples were taken immediately prior to application and then at 1-3 min intervals thereafter. The ESI source was operated in positive ion mode. A 0.2% NH4OH:water mobile phase was introduced into the source at a flow rate of 0.1 mL/min during sampling to produce ammonium adducts of the analytes of interest.

[3] = after vaginal administration with gel; cited from earlier work
[4] = Breath kinetics of exhaled d6-acetone after oral ingestion of d8-isopropanol; assay type: in vivo; settings: post-ingestion
Description: Either 100 mg d8-isopropanol or 20 mg d8 isopropanol was delivered orally. For oral dosing, 100 or 20 mg of neat d8-isopropanol were placed in a size 4 licap and the licap was swallowed along with 60-100 mL of water. Following administration of d8-isopropanol, exhaled breath was monitored in real time for the presence of d6-acetone and d7-isopropanol using the Orbitrap LCMS.
(§1) Following application or ingestion, d6-acetone and d7-isopropanol levels were monitored in exhaled breath samples using the LTQ-LCMS. Single full breath samples were administered directly into the modified ESI source at 5 min intervals for ˜4 hours. The ESI source was operated in positive ion mode.

[5] = Breath kinetics of exhaled d6-acetone after topical application of d8-isopropanol in carbomer gel; assay type: in vivo; settings: 240 mg transdermal in carbomer gel, post application; maximum still not achieved
Description: 240 mg of d8-isopropanol was mixed with 3 mL of a carbomer-based aloe gel. This gel was applied to an approximately 20 cm^2 area of the inner left forearm and covered with a Tagaderm occlusive dressing. To further reduce the permeability of the dressing, the transparent section was covered with a small section of teldar polymer prior to use.
as §1

Compound: CCC(C)O (stereo not shown) [2-butanol]
2-butanone concentration in breath [1]: 500-1,000 ppb
time to appearance of 2-butanone in breath [2]: 2 to 3 min

Compound: CCCC(C)OC(C)=O (stereo not shown) [2-pentyl acetate]
parent ester and metabolites observed in breath [3]: observed in breath

Compound: CCC(C)OC(C)=O (stereo not shown) [2-butyl acetate]
parent ester and metabolites observed in breath [3]: observed in breath

time by which D6-acetone levels in exhaled breath began to level out ([4]; 20 mg oral): ≤ 15 min
time by which D6-acetone levels in exhaled breath began to level out ([4]; 100 mg oral): ≤ 15 min
time to maximum concentration of d-6 acetone in exhaled breath [5]: > 200 min
Compound: [2H]OC([2H])(C([2H])([2H])[2H])C([2H])([2H])[2H] [d8-IPA, d8-isopropanol]
